# Test results: BindingDB's records for doi:10.1016/0014-5793(95)01389-x (Max-Planck-Institut, 1995)
# Biological target: 5-hydroxytryptamine receptor 5A (Mus musculus, UniProt P30966)
# Sequence (P30966 whole entry): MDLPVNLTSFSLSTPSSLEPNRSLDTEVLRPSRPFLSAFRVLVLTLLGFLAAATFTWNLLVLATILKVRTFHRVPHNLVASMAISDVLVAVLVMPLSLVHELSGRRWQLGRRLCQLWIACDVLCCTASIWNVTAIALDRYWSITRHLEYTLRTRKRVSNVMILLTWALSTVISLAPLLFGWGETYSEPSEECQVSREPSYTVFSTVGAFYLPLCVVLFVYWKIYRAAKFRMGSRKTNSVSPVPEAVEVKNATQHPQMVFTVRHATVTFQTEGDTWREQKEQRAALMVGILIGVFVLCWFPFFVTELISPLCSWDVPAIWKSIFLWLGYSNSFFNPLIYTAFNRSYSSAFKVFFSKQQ
row,Structure (SMILES),Ki [nM]
1,CC[C@@H](CO)NC(=O)[C@@H]1C=C2c3cccc4c3c(cn4C)C[C@H]2N(C)C1,500
2,CN(C)CCc1c[nH]c2ccc(O)cc12 [3-[2-(dimethylamino)ethyl]indol-5-ol],2900
3,"CN1C[C@H](C(=O)N[C@]2(C)O[C@@]3(O)[C@@H]4CCCN4C(=O)[C@H](Cc4ccccc4)N3C2=O)C=C2c3cccc4[nH]cc(c34)C[C@H]21 [12'-hydroxy-2'-methyl-5'alpha-(phenylmethyl)ergotaman-3',6',18-trione]",38
4,CN1CC(C(=O)O)C=C2c3cccc4[nH]cc(c34)CC21 (centres undefined) [NSC_622688],2000
